According to US7276337B2, “Compositions and methods for visual ribonuclease detection assays” (Integrated DNA Technologies, Inc., priority 2000, dated 2007):

Key:
[1] = Ribonuclease assay on an environmental sample (tapwater), visual detection; format: biochemical; conditions: with Assay Buffer, Substrate 500 nM, room temperature 10 minutes
Protocol: Nuclease assays were conducted using the method of the invention. Dilutions of the test sample (tapwater) were made in nuclease-free water both with and without the addition of Assay Buffer. Samples were tested having 100%, 50%, 25%, 10%, 5%, and 1% tapwater. Assay Mixes contained test sample (diluted or undiluted tapwater) and Substrate (SEQ ID NO:30) at a concentration of 500 nM (50 pmoles ODN in 100 ul volume). Control Assay Mixes were in nuclease-free water without added tapwater. Duplicate Assays were performed with and without 1× Assay Buffer. Assay Mixes were incubated at room temperature for 10 minutes. Reactions were visually examined for fluorescence emission in the assay tubes without further manipulation. Tubes were suspended above an ultraviolet light source, visually inspected, and photographed using a digital camera. […] The test samples (with tapwater) emitted fluorescent signal. With Assay Buffer, tapwater was detectable when diluted to as little as 10 parts-per-thousand (1%). Without Assay Buffer, the assay was less sensitive and fluorescent emission was less intense. Addition of Buffer thus led to improved assay sensitivity.

RNase 1 = RNase 1 (Escherichia coli, UniProt P21338); assay: Visual detection ribonuclease assay, cleavage of Substrate by RNase 1; format: biochemical, E. coli; conditions: final dilution factors of stock 10^−2 to 10^−7; Substrate 500 nM; room temperature 10 minutes
RNase 1, sequence (P21338 24-268): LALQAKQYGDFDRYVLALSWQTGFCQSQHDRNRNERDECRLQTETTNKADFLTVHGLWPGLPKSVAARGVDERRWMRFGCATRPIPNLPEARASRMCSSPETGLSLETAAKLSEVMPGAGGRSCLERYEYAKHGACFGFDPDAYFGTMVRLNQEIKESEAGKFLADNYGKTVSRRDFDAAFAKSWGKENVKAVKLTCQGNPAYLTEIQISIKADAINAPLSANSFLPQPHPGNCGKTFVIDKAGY
Protocol: It is commonly accepted that fluorometry provides for high sensitivity. To be useful, the visual method must also offer high sensitivity. Assays were conducted using the method of the invention with visual detection. Substrate SEQ ID NO:30 was mixed in 1× Assay Buffer at a concentration of 500 nM (50 pmoles ODN in 100 ul volume) in thin-walled, UV transparent tubes. […] Dilutions of stock RNase A, RNase 1, and RNase T1 were made in water. Undiluted and diluted nuclease (1 ul) was added to respective 100 ul Assay Mixes resulting in final dilution factors of 10^−2, 10^−3, 10^−4, 10^−5, 10^−6, and 10^−7. Assays were incubated at room temperature for 10 minutes and visually examined for fluorescence emission with UV excitation. […] The experiment took about 30 minutes to perform, including 15 minutes to set-up serial dilutions, 10 minutes incubation, and 5 minutes to visualize and photograph. Thus the method of the invention allows for a rapid, simple, and convenient visual assay for the presence of ribonuclease activity.

Ribonuclease A = molecular target: T1, Ribonuclease A (Bos taurus, UniProt P61823); assay: Visual detection ribonuclease assay, cleavage of Substrate ODN by RNase A; format: biochemical, mammalian; design: key to Sensitivity of Substrate ODN to Ribonuclease A, relative signal intensity: +++ = maximum intensity; ++ = moderate intensity; + = faint but above background; − = negative (identical to background); conditions: Substrate 500 nM; for Sensitivity of Substrate ODN to Ribonuclease A, relative signal intensity: visual inspection, UV excitation, 37° C. 60 minutes
T1 sequence (P61823 27-150): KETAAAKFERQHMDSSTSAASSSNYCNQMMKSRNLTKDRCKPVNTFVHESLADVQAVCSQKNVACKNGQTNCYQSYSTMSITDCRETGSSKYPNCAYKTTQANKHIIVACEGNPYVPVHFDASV
Outline: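 Fluorogenic substrate oligonucleotides (500 nM for visual, 50 nM for fluorometric read) cut by serially diluted RNase A, 10 min at room temperature or 60 min at 37° C. Cleavage judged by fluorescence under UV excitation, scored +++ to − by relative intensity.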

Substance: 5′ Fluorescein-AauggcA-QSY-7 3′ (NAAUGGCAN; 5' fluorescein and 3' QSY-7 labels, nucleotide chemistry not given here) [SEQ ID NO:30]
- Lowest tapwater concentration detectable [1]: 1%
- Detection of RNase 1 activity by visual examination (RNase 1): clearly detectable
- Sensitivity of Substrate ODN to Ribonuclease A, relative signal intensity (Ribonuclease A; RNase A 10 pg/ml): ++
- Sensitivity of Substrate ODN to Ribonuclease A, relative signal intensity (Ribonuclease A; RNase A 100 pg/ml): +++
- Sensitivity of Substrate ODN to Ribonuclease A, relative signal intensity (Ribonuclease A; RNase A 1 ng/ml): +++
- Fluorescence emission by visual inspection in the presence of RNase (Ribonuclease A; RNase A 1.0 ug/ml, room temperature 10 minutes, UV light source): visibly bright
- Detection of RNase A activity by visual examination (Ribonuclease A; final dilution factors of stock 10^−2 to 10^−7, room temperature 10 minutes): clearly detectable
- Fluorescence emission by visual inspection in the absence of RNase (control reaction) (Ribonuclease A; no nuclease, room temperature 10 minutes, UV light source): visually transparent (dark)
